# Assay results from patent US10975116B2, “Methods of treating and preventing gastrointestinal motility disorders using aminosterols” (Enterin, Inc., priority 2013, dated 2021).
# Entries after “also recorded” stand apart in the source; their conditions may differ.
# Experiments:
# lymphoma = experiment: Oral squalamine in lymphoma, single subject; type: in vivo, human
# Experimental: A person with a 2 year history of progressive dementia and weakness presented with a massive cervical, axillary, and inguinal lymphadenopathy, along with malaise, somnolence and pain. […] The skin of their feet was a nonblanching bright pink hue up to the ankle with a scattered brownish purpuric rash. The individual was provided end of life care.
# At the end of December 2013, the individual was begun on a daily dose of one 50 mg capsule of squalamine. […] Rash cleared within 3 days. On day 4 after squalamine initiation, a short course of dexamethsone was begun to treat the hypercalcemia, and stimulate appetite. 20 mg (4 days), 16 mg (2 days), 8 mg, 4 mg (2 days), then 2 mg daily. […] Mid-January 2014 weakness on the right, involving arm and leg was noted; a diagnosis of a mild stroke was made. […] A flat left submandibular node was felt of normal size and consistency. […] Squalamine treatment continues.
# [1] = system: Parkinson's-like syndrome; experiment: Oral squalamine in Parkinson's-like syndrome without GI disorders, single subject; type: in vivo, human
# Text: The individual was a person. They were a psychiatrist specializing in addiction. Movement disorder began. Original diagnosis was multiple sclerosis. Presenting symptoms were depression and difficulty in controlling the action of sitting in chair. They would “plop” onto a sit without braking the movement. […] Treatment with L-DOPA caused some correction of the sitting difficulty, leading to the presumptive diagnosis of Parkinson's disease. Therapy continued with increasing doses of Sinemet, followed by addition of ropinirole. Deterioration continued (despite an L-DOPA dose exceeding 10-11 pills/day), ropinirole (5×2 mg and 4×1 mg, daily) and amantadine was added. They were on Wellbutryn for depression. There had been no history of GI disorders, and bowel function was said to be normal.
# The individual lived at home with a spouse and 2 children. They had to be driven to work. Walking was unsteady. Their speech was nearly incomprehensible. Face was mask-like. No obvious tremors. Walking was hesitant. Subject had fallen (or tripped) several times previously and used a cane.
# [2] = system: colon migrating motor complex (MMC); experiment: Colonic motility and intraluminal pressure in excised colon segment; set-up: species or system mouse; conditions: squalamine added to the colonic lumen
# Experimental: A segment of colon was excised from a mouse, and one end was attached to a glass tube housing a pressure sensor. A video camera recorded the visible contractions of the segment. When squalamine was added to the colonic lumen, the frequency of contractions increased about 2 fold, representing coordinated peristaltic waves that move toward the rectum.
# [3] = system: Opioid induced constipation; experiment: Oral squalamine in opioid (codeine) induced constipation, single subject; type: in vivo, human
# Experimental: A normal subject began dosing with 1 tab codeine 30 mg/acetaminophen 300 mg at 8 A on Day 1, and repeated on Day 2 and Day 3. Normal bowel movement frequency was 1 or more stools/day, normally formed. Prior to codeine on Day 1, subject passed a normal stool in the AM. No bowel movements from the start of dosing through the 8 A Day 3 dose. No cramping; some gas. Some sense of fullness on the evening of Day 2.
# At 9:15 A subject was administered 200 mg cap of squalamine. […] No nausea. […] A second smaller stool was passed at 12:30. […] The rapid effect on colonic motility seems unlikely to have been a direct effect of squalamine on the colon, but perhaps a downstream consequence of enteric nervous system stimulation. On Day 4, 30 mg codeine. No squalamine dosing. 7 P passed a loose stool of normal volume.
# [4] = system: Irritable Bowel Syndrome (IBS); experiment: Oral squalamine in Irritable Bowel Syndrome, single subject; type: in vivo, human
# Text: A person, in otherwise good health, was suffering from the “mixed” form of IBS since early childhood. The condition was characterized by a failure to feel “cleared” after the passage of a stool; occasional crampiness; abdominal bloating and a sense of “fullness.” The condition caused them to be “conscious of their bowels” throughout the day, and frequently interrupted their sleep. Attempts to relieve themself on the toilet would generally be ineffective, leaving them with the feeling of “still having to go.”
# On day 1 the individual was administered a single 200 mg capsule of squalamine, orally, on an empty stomach with water. Within 2 hrs they experienced nausea, at 3 hrs they vomited, followed soon after by the passage of about 200 ml of clear discharge rectally. By 3.5 hrs the nausea had passed. They ate normally at lunch and dinner. […] Slept better than they had in many years. The first stool was passed on Day 4, was soft and passed easily, and then successively on Days 5, 6, 7, and 8. Beginning at Day 6, they began to experience the prior GI symptoms. By Day 8, their usual GI symptoms had returned.
# A second dosing trial was begun on Day 15, with a 50 mg capsule administered. […] Bowel movement was passed on Day 17. A 25 mg capsule was administered on Day 19. […] It was assumed that 50 mg dosed every other day was an optimum regimen. The individual remained on a dosing schedule of 50 mg orally every other day.
# [5] = Recovery of squalamine from stool after oral dose (thin layer chromatography); type: in vivo, human; conditions: 200 mg oral; all stool collected for 6 days; 60% acetonitrile/1% HCl extraction
# Experimental: 200 mg of squalamine was administered to a human […] as in the first example. All stool was collected for 6 days following administration. Stool was then extracted with 60% acetonitrile and 1% HCl overnight. The supernatant was collected and the presence of squalamine assessed by thin layer chromatography following published procedures. Approximately 80% of the dose could be recovered from the stool.
# [6] = single 200 mg capsule Day 1, empty stomach
substance,measurement,setting,value
squalamine,physical examination of nodes,"lymphoma; 50 mg daily from end of December 2013, end of February 2014",no palpable cervical nodes
same,lymph node size,"lymphoma; 50 mg daily, by 1 week, dexamethsone from day 4",marked reduction in the size of the nodes
same,"clinical chemistry, polyclonal immunoglobulins","lymphoma; 50 mg daily, repeat study",complete resolution of the polyclonal gammopathy
same,rash cleared,lymphoma; one 50 mg capsule daily,≤ 3 days
same,bowel function,"lymphoma; one 50 mg capsule daily, previously constipated",bowels began to move
same,Observations,"[1]; Day 1, 100 mg cap",No obvious GI response. Continued
same,Observations,"[1]; Day 21, 100 mg every other day, then began 200 mg every other day",articulation had become noticeably better; also recorded: improving and their energy level was increasing
same,Observations,"[1]; Month 3, subject ran out of squalamine 2 weeks prior (cessation)",worst constipation they had ever remembered.”; also recorded: that he “was not feeling as good”
same,Observations,"[1]; Month 5, 100 mg every other day raised to 200 mg every day at month 5.5",mg every day at month 5.5. No GI; also recorded: colleagues noted improvement. Took; also recorded: several falls which they attributed
same,Observations,"[1]; Month 6, 200 mg every day",Individual could compensate being pulled; also recorded: told me that they felt their balance had improved; also recorded: Still had difficulty initiating; also recorded: No tremor; also recorded: Voice was of low; also recorded: volume. Face was still mask-like; also recorded: Once moving subject walked without; also recorded: Medication dosing had not changed
same,increase of the frequency of contractions,[2],about 2 fold
same,peak pressure of MMC waves,[2]; versus before application,did not differ; also recorded: no apparent effect
same,bowel response,"[3]; 200 mg cap at 9:15 A on Day 3 of codeine 30 mg/acetaminophen 300 mg, no stool since start, stool at 11:15 A","passed a large soft, well formed stool with normal urgency; also recorded: A sense of bowel relief was appreciated"
same,nausea and rectal fluid,[3]; 200 mg cap at 9:15 A on Day 3 of codeine dosing,No nausea; also recorded: No clear rectal fluid
same,response to 25 mg capsule,[4]; 25 mg capsule on Day 19,By Day 21 the previous symptoms of IBS were returning
same,response to 50 mg capsule,[4]; 50 mg capsule on Day 15,Neither nausea nor a discharge was experienced; also recorded: Sense of bowel quiet was experienced
same,IBS status on maintenance dosing,"[4]; 50 mg orally every other day, at 10 months",no longer experiences symptoms of IBS; also recorded: Bowel movements are of normal consistency; also recorded: Sleep is no longer interrupted by urgency to defecate
same,"nausea had passed, time after dosing",[4]; [6],≤ 3.5 h
same,volume of clear discharge passed rectally,[4]; [6],about 200 ml
same,"vomiting, time after dosing",[4]; [6],3 h
same,"nausea, time of onset after dosing","[4]; single 200 mg capsule Day 1, empty stomach, person with mixed IBS",≤ 2 h
same,first stool passed,[4]; single 200 mg capsule on Day 1,Day 4
same,period of bowel quiet without cramping or urgency,[4]; single 200 mg capsule on Day 1,Day 1 through Day 5
same,return of usual GI symptoms,[4]; single 200 mg capsule on Day 1,Day 8
same,dose recovered from the stool,[5],Approximately 80%
